Results published in paper PMC10799085, “A miniaturized mode-of-action profiling platform enables high throughput characterization of the molecular and cellular dynamics of EZH2 inhibition” (Scientific Reports, 2024).
Like-named read-outs stand apart in the source and are kept apart here.

Assays:
[1] = in vitro; format: in vitro ADME; details: 2 µM, 2 h, 37 °C, basolateral to apical
Experimental: Cells were kept at 37 °C in a humidified 5% CO2 atmosphere. Before the permeation assay was run, the culture medium was replaced by an FCS-free HEPES carbonate transport buffer (pH 7.2). For assessment of monolayer integrity, the transepithelial electrical resistance was measured. Test compounds were pre-dissolved in DMSO and added either to the apical or basolateral compartment at a final concentration of 2 µM. Before and after 2 h incubation at 37 °C, samples were taken from both compartments. Analysis of compound content was conducted after precipitation with methanol by LC/MS/MS analysis. Reference compounds were analyzed in parallel as assay control. Permeability (Papp) was calculated in the apical to basolateral (A → B) and basolateral to apical (B → A) directions. The efflux ratio basolateral (B) to apical (A) was calculated by dividing Papp B–A by Papp A–B.

[2] = target: T1, PRC2/EZH2Y641N (Homo sapiens, UniProt Q15910, Y641N); assay: Kinetic probe competition assay (kPCA), TR-FRET; format: binding; details: calculated
T1 construct: Synthetic cDNA encoding N-terminal 6His-tagged full length EZH2^Y641N; 6His (N); made in house; host or cells: Sf9 insect cells (baculovirus co-infection)
From the text: (§1) Biotinylated PRC2 complexes and the fluorescent probe used in TR-FRET assays were generated as described in the supplementary methods section.

[3] = target: T2, PRC2/EZH2+/+ (Homo sapiens, UniProt Q15910); assay: Equilibrium binding thermodynamics (van't Hoff analysis of ePCA/kPCA at 5-37 °C); details: ePCA at 5-37 °C, wild type EZH2
T2 construct: purchased Active Motif
Experimental: For thermodynamic analysis of the binding to EZH2+/+ the probe characterization, equilibrium and kinetic probe competition assays described above (previously conducted at 25 °C) were performed at 5, 15, 30 and 37 °C. […] For measurements at 25, 30 and 37 °C, the temperature control functionality of the instrument was used.
Equilibrium and kinetic binding constants obtained at various temperatures were used to determine the thermodynamic parameters by van’t Hoff and Eyring analysis, as described elsewhere for SPR and radioligand binding experiments[46],[69]. For the van’t Hoff thermodynamic analysis, changes in entropy ΔS° and enthalpy ΔH° were estimated by linear regression using the van’t Hoff equation. lnKA=ΔS^∘/R-ΔH^∘/RT,
Changes in Gibb’s free energy ΔG° were calculated according to. ΔG^∘T=ΔH^∘-T×ΔS^∘
Additionally, the possible temperature dependence of the thermodynamic parameters was considered using the integrated form of the van’t Hoff equation[47] for nonlinear regression to yield the changes in entropy, enthalpy, and heat capacity ΔCp: ln KA=-ΔH^∘T^∘/RT+ΔS^∘T^∘/R+ΔCp/R[T-T^∘/T-lnT/T^∘],

[4] = target: T3, PRC2/EZH1 (Homo sapiens, UniProt Q92800); assay: Scintillation proximity assay (SPA) of H3K27 methylation; format: biochemical
T3 construct: N-terminal 6His-tagged full length EZH2^Y641N, EZH2^Y111L, EZH2^Y111D, EZH2^Y641N, Y661DEZH2, EZH1; 6His (N); made in house; host or cells: Sf9 insect cells (baculovirus co-infection)
Experimental: Assay-ready plates containing 50 nl of compound dilutions and DMSO controls were filled with 2.5 µL enzyme solution and pre-incubated for 15 min. […] Experiments were also performed without pre-incubation of enzyme and compounds. In this case, the substrate solution was added before enzyme. The reaction was stopped using 1.6 µg/µl streptavidin beads (Perkin Elmer) and 700 µM of SAM (Perkin Elmer). The plates were sealed with transparent foil.
For equilibrium binding competition (ePCA) and SPA enzyme inhibition assays, raw data import, quality control, normalization, and curve fitting to a 4-parameter logistic equation for IC50 determination were performed using the Genedata Screener® software (Genedata AG). ePCA Ki values were either calculated using the Cheng-Prussof equation[68] or with the GraphPad Prism model “One-site—Fit Ki”.

[5] = tested on: KARPAS-422 cells; assay: Cellular proliferation assay (AlamarBlue, 144 h); format: cell-based; details: KARPAS-422 cells, 6-day (144 h), AlamarBlue; read-out: KARPAS (6-day) Anti-proliferation IC50
Experimental: Cell viability was determined by means of the AlamarBlue® reagent (Thermo Fisher Scientific) following instructions from the manufacturer. […] Anti-proliferative IC50s were calculated by fitting the normalized AlamarBlue® fluorescence values to a 4-parameter logistic equation using the Electronic Notebook (ELN) software from IDBS.

[6] = target: T2, PRC2/EZH2+/+; assay: Kinetic probe competition assay (kPCA), TR-FRET; format: binding
Experimental: as §1
For measurements at 25, 30 and 37 °C, the temperature control functionality of the instrument was used.
TR-FRET kPCA traces were exported via Microsoft Excel to GraphPad Prism, where non-specific signals were subtracted and kinetic association competition traces were fitted to the Motulsky–Mahan model “kinetics of competitive binding” to obtain kon (k3), koff (k4) and KD parameters.

[7] = tested on: H3K27me3 mark in MDA-MB-231 cells; assay: High content analysis (HCA) of cellular H3K27me3 mark, washout format; format: cell-based; details: for IC50: H3K27 methylation HCA, read-out: Mean IC50
Experimental: In the low- and high-signal control wells, test compounds were replaced by 10 µM of EZH2 inhibitor (equal to unlabeled probe from ePCA and kPCA) or DMSO, respectively. […] After fixation, the cells were washed with PBS and incubated with 1% BSA blocking solution at RT for 1 h. Blocking solution was discarded, primary monoclonal antibody rabbit Tri-methyl-histone H3K27 (C36B11, Cell signaling) diluted 1:200 in blocking solution was added and incubated overnight at 4 °C. […] Afterwards, cells were washed three times with PBS and incubated at 4 °C until measuring. Fluorescence signals were captured by an Opera Phenix™ High Content Screening (HCA) system (Perkin Elmer) by 10× magnification. […] Microscopy images were initially visualized and preprocessed with MetaXpress High Content Image Acquisition & Analysis Software (Molecular Devices) as previously described. Raw data import, normalization, quality control and fitting curves for IC50 determination of tested compounds were done with Genedata Screener® for high-content screening. Wells with no recognizable signals were masked and the average intensity of the trimethylation signal was normalized to the DMSO control (0%).

With CC[C@H](C)n1cc(C)c2c(C(=O)NCc3c(C)cc(C)[nH]c3=O)cc(-c3ccc(N4CCNCC4)nc3)cc21 [Compound 4, GSK126] the “PK Caco-2 Flux Papp B-A (mean)” value [1] was 9.838 ×10⁻⁶ cm/s, the “Calculated RT” value ([2]; EZH2Y641N (+ H3K27me3)) was 0.22 h and the “Calculated RT” value ([2]; EZH2Y641N (- H3K27me3)) was 0.0666 h. The “binding driving force, polynomial van't Hoff analysis” value [3] was “entropy-driven”, the IC50 ([4]; 0' enzyme:inhibitor pre-incubation, read-out: SPA Mean IC50 (M) - 0' enzyme:inhibitor pre-incubation EZH1) was 1.1e-06 M and the IC50 ([4]; 15' enzyme:inhibitor pre-incubation, read-out: SPA Mean IC50 (M) - 15' enzyme:inhibitor pre-incubation EZH1) was 4.4e-07 M. For the same molecule, the IC50 ([4]; 60' enzyme:inhibitor pre-incubation, read-out: SPA Mean IC50 (M) - 60' enzyme:inhibitor pre-incubation EZH1) was 1e-06 M, the IC50 [5] was 280 nM and the “Calculated RT” value ([6]; EZH2+/+ (+ H3K27me3)) was 0.44 h. For the same molecule, the “RT (Calculated)” value ([6]; EZH2+/+ (- H3K27me3), 15 °C) was 0.0145 h, the “RT (Calculated)” value ([6]; EZH2+/+ (- H3K27me3), 30 °C) was 0.031 h and the “RT (Calculated)” value ([6]; EZH2+/+ (- H3K27me3), 37 °C) was 0.0092 h. The “Calculated RT” value ([6]; EZH2+/+ (- H3K27me3)) was 0.06 h, the IC50 ([7]; incubation time 0.5 h, washout time 71.5 h) was 5800 nM and the IC50 ([7]; incubation time 1 h, washout time 71 h) was 2900 nM. For the same molecule, the IC50 ([7]; incubation time 2 h, washout time 70 h) was 2400 nM, the IC50 ([7]; incubation time 4 h, washout time 68 h) was 1800 nM and the IC50 ([7]; incubation time 24 h, washout time 48 h) was 1400 nM. The IC50 ([7]; incubation time 48 h, washout time 24 h) was 700 nM, the IC50 ([7]; incubation time 72 h, washout time 0 h) was 310 nM and the “AUC (a.u.)” value ([7]; HCA H3K27 methylation washout pIC50 AUC over all incubation/washout times) was 81.2 a.u.
